Test results as given in patent US7173021B2, “Synthesis of temozolomide esters as potent anticancer pro-drugs for topical and transdermal applications in treatments of cancers” (Tianjin North Pharm Sci-Tech Co., Ltd., priority 2004, dated 2007).

What was measured:
Assay type in all cases: in vitro ADME
[1] = In vitro permeation and metabolism, Franz diffusion cell, human skin
From the text: (§1) Jacketed Franz-type diffusion cells were used throughout the study and the barrier (12) (skin or silicone membrane) was mounted between the two chambers (14, 16) (2.8–3.4 cm^2 available surface area) with the dermal side in contact with the receiver solution (FIG. 2). The diffusion chambers (10) comprised a barrier of skin or silicone membrane (12) mounted between two chambers (14, 16). A cap (18) formed the donor compartment (14). The second receptor compartment (16) contained a receptor cell (20) with a stirring bar (22), sampling port (24) and cover (26). The stirring bar (22) was stirred by means of a magnet plate (28) having a rotating magnet. The receptor compartment comprised a water jacket (30) having a water inlet (32) and a water outlet (34).
(§2) Three types of materials were used in permeation studies. • 1. Silicone membrane (Silastic Medical Grade, 500-5, Dow Corning 0.005 in thick) was cut into circular sections (2 cm diameter) and washed with double distilled water prior to use. • 2. Full-thickness rat skin was obtained from Male Wistar rats aged 10 to 12 weeks and weighing 250 to 300 g, which were sacrificed by cervical dislocation, the abdomen shaved and the intact skin removed by dissection. Following removal of fat tissue, the skin was cut into circular pieces and used immediately. • 3. Samples of adult human epidermis were purchased from the Stephen Kirby Skin Bank (UK). The samples were from the leg, were stored at −18° C. and used within one week. Experiments
The membrane (as detailed above) was mounted on the diffusion cell (10), on which the surface area available for diffusion of each cell was about 2.8–3.4 cm^2. The cell cap (18) was placed on the membrane (12), and it was sealed with Parafilm® connecting the cell cap, membrane, and receptor cell. […] The concentration of each sample solution was determined by using HPLC. […]
(§3) As stated above, after the removal of receptor solution, the receiver compartment was refilled with an identical volume of receptor fluid. […] As a consequence, it was necessary to mathematically correct each successive sample concentrations, in the present invention, which was determined by applying the following equation:
(§4) [formula] where Ct is the actual current concentration of drug in the receptor phase at time t, Cmt is the apparent (i.e. measured) current concentration of drug in the receptor phase, Vs is the sample volume withdrawn for analysis, Vr is the volume of receptor solution, and ΣCm is the summed total of the previous measured concentrations.
(§5) Finally, the amount of drug penetrating the skin per unit area was calculated by dividing the obtained concentrations by the surface area available for diffusion cell and this value was different for each individual cell. […]

[2] = In vitro permeation and metabolism, Franz diffusion cell, full-thickness rat skin; details: 37° C., 8 h, FIGS. 6-8
From the text: as §1
Three types of materials were used in permeation studies. • 1. […]
The membrane (as detailed above) was mounted on the diffusion cell (10), on which the surface area available for diffusion of each cell was about 2.8–3.4 cm^2. […] The concentration of each sample solution was determined by using HPLC. […]
as §3, with “equation: […]” for “equation:”

[3] = In vitro permeation, Franz diffusion cell, silicone membrane; details: 37° C., 8 h, FIGS. 3-5
From the text: as §1, §2
The membrane (as detailed above) was mounted on the diffusion cell (10), on which the surface area available for diffusion of each cell was about 2.8–3.4 cm^2. The cell cap (18) was placed on the membrane (12), and it was sealed with Parafilm® connecting the cell cap, membrane, and receptor cell. The capacity of each receptor cell was around 25–26 ml, which was filled with receptor solution and was completely in contact with the membrane sheet. During the course of experiment, the solution was continuously stirred by teflon-coated magnetic bar (22) placed in the cell (20). The temperature was maintained at 37° C. by a thermostatic water pump that circulated the water through the jacket (30) surrounding the cell body. The system was allowed to equilibrate under these conditions for half an hour. Finally, the prepared sample solution (2 ml) was added into the donor cap cell, and it was sealed with Parafilm® to minimize the evaporation of donor solution. 1 ml of receptor solution was removed every 30 minutes for 5 hours and then every 60 minutes for a further 3 hours. The volumes withdrawn were always replaced with equal volumes of fresh receptor solution to maintain constant volume. The concentration of each sample solution was determined by using HPLC.
For every sample, six determinations were performed on human and rat skin, and three determinations were carried out through artificial silicone membrane.
As stated above, after the removal of receptor solution, the receiver compartment was refilled with an identical volume of receptor fluid. This causes of the dilution of receptor solution leading to an under determination of the sample concentration. As a consequence, it was necessary to mathematically correct each successive sample concentrations, in the present invention, which was determined by applying the following equation:
as §4, §5

Permeation through human skin ([1]; 37° C., FIG. 9): notably better than temozolomide
Permeation through full-thickness rat skin (cumulative amount permeated %) [2]: maximum value
Structure (SMILES): CCCCCCOC(=O)c1ncn2c(=O)n(C)nnc12 [temozolomide hexyl ester, Hexyl 3,4-dihydro-3-methyl-4-oxoimidazo[5,1-d]-1,2,3,5-tetrazine-8-carboxylate]
Metabolism within human skin to temozolomide acid ([1]; human skin): completely metabolized into the temozolomide acid
Permeation through synthetic silicone membrane [3]: passed through the membrane far more efficiently
